Activity calls are given as the source filed them.
Columns and labels:
[1] = molecular target: G-protein coupled receptor 55 (Homo sapiens, UniProt Q9Y2T6); test: GPR55 antagonists, SAR follow-up, counter-screen for GPR35 antagonist project, imaging, image-based (AID 2397); type: functional
[2] = molecular target: Intestinal-type alkaline phosphatase (Mus musculus, UniProt P24822); test: PubChem AID 488874; type: functional
[3] = molecular target: T1, Intestinal-type alkaline phosphatase (Homo sapiens, UniProt P09923); test: human intestinal alkaline phosphatase activators, dose response, biochemical, luminescence, uHTS hits (AID 463120); type: functional
T1 sequence (P09923 whole entry): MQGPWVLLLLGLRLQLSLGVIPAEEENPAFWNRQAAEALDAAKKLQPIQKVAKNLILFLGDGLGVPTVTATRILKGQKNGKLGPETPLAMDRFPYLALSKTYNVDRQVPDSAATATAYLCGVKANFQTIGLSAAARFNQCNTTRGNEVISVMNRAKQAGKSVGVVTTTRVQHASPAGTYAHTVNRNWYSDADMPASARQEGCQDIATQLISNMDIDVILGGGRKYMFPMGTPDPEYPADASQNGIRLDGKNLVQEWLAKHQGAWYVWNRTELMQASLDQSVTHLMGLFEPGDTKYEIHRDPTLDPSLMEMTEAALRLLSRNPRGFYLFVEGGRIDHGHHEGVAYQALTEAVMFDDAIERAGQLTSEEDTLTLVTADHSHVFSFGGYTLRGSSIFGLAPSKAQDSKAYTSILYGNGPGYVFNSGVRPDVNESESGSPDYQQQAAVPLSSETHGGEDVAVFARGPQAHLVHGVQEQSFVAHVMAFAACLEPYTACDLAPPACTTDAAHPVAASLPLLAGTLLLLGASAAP

[4] = molecular target: T1, Intestinal-type alkaline phosphatase; test: human IAP activators, dose response, biochemical, luminescent, uHTS hits, set 2 (AID 488817); type: functional;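 further: potency of activators that raise enzyme activity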
[5] = molecular target: T2, Alkaline phosphatase, tissue-nonspecific isozyme (Homo sapiens, UniProt P05186); test: TNAP enzyme activators, dose response, selectivity assay for human IAP activator project, biochemical, TNAP isozyme, human IAP uHTS hits (AID 488886); type: functional;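 further: potency of compounds raising TNAP activity as a selectivity check on IAP activators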
T2 sequence (P05186 whole entry): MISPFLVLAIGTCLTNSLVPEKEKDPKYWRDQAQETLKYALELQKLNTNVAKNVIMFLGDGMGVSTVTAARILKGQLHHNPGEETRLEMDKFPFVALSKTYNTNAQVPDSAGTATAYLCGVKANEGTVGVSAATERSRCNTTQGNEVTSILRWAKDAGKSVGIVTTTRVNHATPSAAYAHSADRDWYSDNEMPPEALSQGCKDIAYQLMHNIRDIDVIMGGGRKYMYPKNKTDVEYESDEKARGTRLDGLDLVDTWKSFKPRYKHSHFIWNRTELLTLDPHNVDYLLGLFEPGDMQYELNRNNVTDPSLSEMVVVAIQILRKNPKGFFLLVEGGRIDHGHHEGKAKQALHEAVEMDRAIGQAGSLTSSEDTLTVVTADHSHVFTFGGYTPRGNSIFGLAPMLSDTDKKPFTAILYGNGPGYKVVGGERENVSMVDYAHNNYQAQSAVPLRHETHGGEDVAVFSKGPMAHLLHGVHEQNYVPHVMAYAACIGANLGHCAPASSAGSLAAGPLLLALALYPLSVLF

[6] = NIH-3T3 fibroblast cytotoxicity, dose response, cytotoxicity control, cell-based, fluorescence, Alamar Blue, secondary assay (AID 2327); type: functional;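 further: NIH-3T3 mouse fibroblasts cultured with fluconazole at 8 µg/mL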
HEK293 [7] = test: NOD1 signaling inhibitors, primary screen, cell-based, luminescence, uHTS (AID 1578); type: functional; conditions: Homo sapiens
BJ [8] = test: cytotoxicity toward BJ-TERT fibroblasts, dose response, cell-based, RAS-independent, luminescence (AID 1933); type: functional; conditions: Homo sapiens
HEK293 [9] = test: cells; type: functional, cell-based; conditions: Homo sapiens
BJ [10] = test: cells; type: functional, cell-based; conditions: Homo sapiens
[11] = C. albicans growth with fluconazole, confirmation, fluorescence, retest (AID 2467); type: functional, cell-based
HEK293 [12] = test: cells; type: functional, cell-based; conditions: Homo sapiens; remark: listed apart in the source
[13] = molecular target: Nucleotide-binding oligomerization domain-containing protein 2 (Homo sapiens, UniProt Q9HC29); test: NOD2 signaling inhibitors, cell-based, luminescence, uHTS, HEK293 (AID 1566); type: functional
Chain of Nucleotide-binding oligomerization domain-containing protein 2 (Q9HC29 whole entry, the tested form may be a part): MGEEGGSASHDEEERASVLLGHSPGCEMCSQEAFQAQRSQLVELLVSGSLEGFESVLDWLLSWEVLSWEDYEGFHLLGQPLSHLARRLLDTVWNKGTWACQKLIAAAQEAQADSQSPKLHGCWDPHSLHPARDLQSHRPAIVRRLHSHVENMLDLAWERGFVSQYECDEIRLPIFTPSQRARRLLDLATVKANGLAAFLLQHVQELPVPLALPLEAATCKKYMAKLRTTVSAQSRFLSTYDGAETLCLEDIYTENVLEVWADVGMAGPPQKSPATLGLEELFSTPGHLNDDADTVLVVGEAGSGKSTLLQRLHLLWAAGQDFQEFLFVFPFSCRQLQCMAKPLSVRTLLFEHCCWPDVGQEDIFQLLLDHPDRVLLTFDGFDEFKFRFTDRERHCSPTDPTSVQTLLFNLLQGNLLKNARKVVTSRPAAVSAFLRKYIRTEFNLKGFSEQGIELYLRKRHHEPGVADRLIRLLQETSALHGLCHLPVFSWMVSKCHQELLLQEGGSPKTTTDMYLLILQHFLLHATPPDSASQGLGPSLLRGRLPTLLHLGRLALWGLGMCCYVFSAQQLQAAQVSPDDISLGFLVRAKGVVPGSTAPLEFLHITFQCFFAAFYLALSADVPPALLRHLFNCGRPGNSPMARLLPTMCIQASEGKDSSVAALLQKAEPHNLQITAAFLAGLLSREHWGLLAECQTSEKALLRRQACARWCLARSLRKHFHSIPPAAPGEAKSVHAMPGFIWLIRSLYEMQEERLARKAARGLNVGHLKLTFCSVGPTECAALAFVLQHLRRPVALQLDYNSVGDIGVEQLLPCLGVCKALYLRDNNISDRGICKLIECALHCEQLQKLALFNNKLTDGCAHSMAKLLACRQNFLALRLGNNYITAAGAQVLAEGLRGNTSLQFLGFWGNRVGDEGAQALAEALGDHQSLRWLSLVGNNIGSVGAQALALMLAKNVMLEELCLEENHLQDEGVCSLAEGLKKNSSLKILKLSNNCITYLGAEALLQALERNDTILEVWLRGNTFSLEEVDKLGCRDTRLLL

HEK293 [14] = test: NOD2 signaling inhibitors in MDP-stimulated cells, cell-based, uHTS, luminescence (AID 2001); type: functional; conditions: Homo sapiens
HEK293 [15] = test: cells; type: functional, cell-based; conditions: Homo sapiens; remark: listed apart in the source
BJ [16] = test: cytotoxicity toward BJ-TERT-LT-ST fibroblasts, dose response, cell-based, RAS-independent, luminescence (AID 1935); type: functional; conditions: Homo sapiens;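 further: BJ fibroblasts immortalized with TERT plus LT and ST oncogenes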
[17] = cytotoxicity toward DRD oncogenic fibroblasts, dose response, cell-based, non-viral oncogenic, luminescence (AID 1934); type: functional; conditions: Homo sapiens
[18] = molecular target: T3, Ubiquitin-conjugating enzyme E2 N (Homo sapiens, UniProt P61088); type: functional;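 further: Dose-response confirmation in a TR-FRET assay detecting UBC13-driven polyubiquitin chain formation, inhibition measured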
T3 sequence (P61088 whole entry): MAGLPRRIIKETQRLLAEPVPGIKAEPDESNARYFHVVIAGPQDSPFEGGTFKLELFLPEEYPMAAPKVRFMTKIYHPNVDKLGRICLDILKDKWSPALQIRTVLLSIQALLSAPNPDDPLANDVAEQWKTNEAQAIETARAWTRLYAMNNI

CAAX prenyl protease 2 = molecular target: T4, CAAX prenyl protease 2 (Saccharomyces cerevisiae S288c, UniProt Q03530); type: biochemical
T4 sequence (Q03530 whole entry): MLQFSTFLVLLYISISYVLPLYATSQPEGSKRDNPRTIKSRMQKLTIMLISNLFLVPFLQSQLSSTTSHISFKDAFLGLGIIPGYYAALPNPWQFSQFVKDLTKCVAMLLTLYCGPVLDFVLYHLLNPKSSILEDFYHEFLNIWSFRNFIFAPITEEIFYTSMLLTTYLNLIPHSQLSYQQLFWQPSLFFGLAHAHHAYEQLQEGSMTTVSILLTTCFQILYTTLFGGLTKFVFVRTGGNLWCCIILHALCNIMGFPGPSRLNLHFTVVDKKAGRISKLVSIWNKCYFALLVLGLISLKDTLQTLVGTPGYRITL

[19] = cytotoxicity in HEK-293T cells, dose response, cytotoxicity control for TCR NF-kB inhibitor project, luminescence, T-cell screen hits (AID 489026); type: functional, cell-based;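 further: cells exposed to compound about 14 hours before the viability readout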
CAAX prenyl protease 1 = CAAX prenyl protease 1 (Saccharomyces cerevisiae S288c, UniProt P47154); test: Ste24 protease inhibitors, dose response, biochemical, S. cerevisiae, plate reader, cherry-pick (AID 488815)
Chain of CAAX prenyl protease 1 (P47154 whole entry): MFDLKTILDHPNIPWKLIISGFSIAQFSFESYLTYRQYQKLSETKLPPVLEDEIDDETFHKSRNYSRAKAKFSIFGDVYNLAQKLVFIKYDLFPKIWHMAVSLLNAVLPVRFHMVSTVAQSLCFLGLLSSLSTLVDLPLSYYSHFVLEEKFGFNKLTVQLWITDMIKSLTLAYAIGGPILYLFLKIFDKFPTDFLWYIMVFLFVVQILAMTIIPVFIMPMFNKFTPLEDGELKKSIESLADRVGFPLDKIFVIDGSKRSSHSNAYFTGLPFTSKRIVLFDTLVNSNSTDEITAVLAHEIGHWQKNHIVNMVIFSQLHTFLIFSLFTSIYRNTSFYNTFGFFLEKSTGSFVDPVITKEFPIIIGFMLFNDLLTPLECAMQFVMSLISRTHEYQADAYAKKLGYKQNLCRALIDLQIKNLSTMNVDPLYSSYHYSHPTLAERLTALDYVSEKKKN

[20] = molecular target: Heat shock protein HSP 90-alpha (Homo sapiens, UniProt P07900); type: functional, organism-based
[21] = molecular target: T5, Apoptotic protease-activating factor 1 (Homo sapiens, UniProt O14727); type: functional
T5 sequence (O14727 whole entry): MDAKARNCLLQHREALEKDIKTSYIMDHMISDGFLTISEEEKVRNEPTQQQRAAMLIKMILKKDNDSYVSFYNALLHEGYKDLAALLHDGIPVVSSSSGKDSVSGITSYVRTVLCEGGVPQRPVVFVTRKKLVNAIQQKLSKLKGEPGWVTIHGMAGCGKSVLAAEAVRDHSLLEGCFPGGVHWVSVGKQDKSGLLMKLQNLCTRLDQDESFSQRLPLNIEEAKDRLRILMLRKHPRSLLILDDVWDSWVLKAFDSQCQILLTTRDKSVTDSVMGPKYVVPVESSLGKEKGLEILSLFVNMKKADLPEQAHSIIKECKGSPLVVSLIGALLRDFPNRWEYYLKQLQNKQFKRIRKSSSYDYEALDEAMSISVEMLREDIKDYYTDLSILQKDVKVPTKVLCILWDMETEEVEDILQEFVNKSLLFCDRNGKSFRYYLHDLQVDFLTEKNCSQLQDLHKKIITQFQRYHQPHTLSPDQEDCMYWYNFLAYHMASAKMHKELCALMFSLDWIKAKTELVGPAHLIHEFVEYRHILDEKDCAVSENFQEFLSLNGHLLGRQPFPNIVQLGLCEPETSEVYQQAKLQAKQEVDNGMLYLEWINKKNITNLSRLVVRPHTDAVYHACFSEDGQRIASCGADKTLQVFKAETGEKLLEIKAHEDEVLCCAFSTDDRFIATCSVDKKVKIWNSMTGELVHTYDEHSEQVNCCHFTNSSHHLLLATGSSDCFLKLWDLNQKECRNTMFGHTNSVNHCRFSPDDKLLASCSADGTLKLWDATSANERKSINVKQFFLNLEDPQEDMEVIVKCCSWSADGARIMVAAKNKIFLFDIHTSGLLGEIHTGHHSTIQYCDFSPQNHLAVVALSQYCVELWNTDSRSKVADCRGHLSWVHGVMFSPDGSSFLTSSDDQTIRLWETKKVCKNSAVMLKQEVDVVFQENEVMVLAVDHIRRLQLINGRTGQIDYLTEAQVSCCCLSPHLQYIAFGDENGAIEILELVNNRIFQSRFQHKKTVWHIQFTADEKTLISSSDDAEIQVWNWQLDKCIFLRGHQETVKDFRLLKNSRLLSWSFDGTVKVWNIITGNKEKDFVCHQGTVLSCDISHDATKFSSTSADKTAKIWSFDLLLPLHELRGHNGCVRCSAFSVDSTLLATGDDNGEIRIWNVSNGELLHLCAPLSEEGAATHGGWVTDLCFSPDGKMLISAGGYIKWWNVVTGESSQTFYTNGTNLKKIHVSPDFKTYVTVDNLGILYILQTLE

BJ [22] = test: cytotoxicity toward Ras-transformed BJeLR fibroblasts, dose response, cell-based, alamar blue fluorescence, cherrypicked samples (AID 2631); type: functional; conditions: Homo sapiens;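 further: confirmatory dose-response assay in RAS-dependent BJ fibroblasts engineered with TERT, LT and ST, with cytotoxicity read by fluorescence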
INS1 = test: beta cell apoptosis inhibitors, cytokine rescue, dose response, luminescence, retest (AID 449756); type: functional, cell-based; conditions: Rattus norvegicus;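 further: cell death triggered by IL-1 beta plus TNF-alpha plus IFN-gamma mixture; protective hits raise ATP signal compared with cytokine alone wells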
Melanocortin receptor 4 = Melanocortin receptor 4 (Homo sapiens, UniProt P32245); type: functional, cell-based;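 further: Cell-based assay with luminescence read-out, confirmatory dose-response testing for agonist activity of biased ligands at MC4R; human U2OS cells with tagged receptor and beta-arrestin; potency of agonists that increase receptor coupling to beta-arrestin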
Chain of Melanocortin receptor 4 (P32245 whole entry): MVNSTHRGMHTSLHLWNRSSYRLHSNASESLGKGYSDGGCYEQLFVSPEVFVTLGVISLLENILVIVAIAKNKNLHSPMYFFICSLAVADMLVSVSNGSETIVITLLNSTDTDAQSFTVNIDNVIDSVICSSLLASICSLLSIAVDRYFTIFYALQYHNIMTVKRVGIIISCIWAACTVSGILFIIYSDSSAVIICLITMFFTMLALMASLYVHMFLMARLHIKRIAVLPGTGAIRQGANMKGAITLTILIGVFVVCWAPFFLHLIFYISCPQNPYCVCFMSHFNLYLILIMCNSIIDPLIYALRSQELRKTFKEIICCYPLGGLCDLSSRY

[23] = molecular target: T6, DNA repair protein RAD52 homolog (Homo sapiens, UniProt P43351); type: functional, biochemical
T6 sequence (P43351 whole entry): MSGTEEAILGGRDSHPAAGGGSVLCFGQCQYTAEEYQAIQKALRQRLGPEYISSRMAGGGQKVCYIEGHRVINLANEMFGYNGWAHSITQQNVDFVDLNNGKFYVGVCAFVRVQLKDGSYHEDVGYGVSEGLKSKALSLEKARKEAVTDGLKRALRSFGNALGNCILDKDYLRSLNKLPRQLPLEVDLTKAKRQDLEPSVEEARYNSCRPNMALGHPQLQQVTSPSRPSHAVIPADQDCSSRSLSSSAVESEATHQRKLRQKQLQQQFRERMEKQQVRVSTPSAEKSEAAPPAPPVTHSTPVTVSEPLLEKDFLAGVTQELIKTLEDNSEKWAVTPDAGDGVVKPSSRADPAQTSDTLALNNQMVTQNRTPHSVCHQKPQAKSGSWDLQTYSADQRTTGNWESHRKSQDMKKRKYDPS

Chain of G-protein coupled receptor 55 (Q9Y2T6 whole entry): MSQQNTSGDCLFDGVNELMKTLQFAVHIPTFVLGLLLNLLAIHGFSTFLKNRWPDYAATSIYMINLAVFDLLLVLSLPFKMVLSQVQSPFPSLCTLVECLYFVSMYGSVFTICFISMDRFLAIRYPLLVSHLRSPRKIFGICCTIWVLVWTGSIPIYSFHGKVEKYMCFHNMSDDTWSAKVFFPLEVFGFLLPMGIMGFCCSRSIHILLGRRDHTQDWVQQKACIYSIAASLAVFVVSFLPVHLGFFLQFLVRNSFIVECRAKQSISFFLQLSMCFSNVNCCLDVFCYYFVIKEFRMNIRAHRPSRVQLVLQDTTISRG
Chain of Intestinal-type alkaline phosphatase (Mus musculus, UniProt P24822) (P24822 whole entry): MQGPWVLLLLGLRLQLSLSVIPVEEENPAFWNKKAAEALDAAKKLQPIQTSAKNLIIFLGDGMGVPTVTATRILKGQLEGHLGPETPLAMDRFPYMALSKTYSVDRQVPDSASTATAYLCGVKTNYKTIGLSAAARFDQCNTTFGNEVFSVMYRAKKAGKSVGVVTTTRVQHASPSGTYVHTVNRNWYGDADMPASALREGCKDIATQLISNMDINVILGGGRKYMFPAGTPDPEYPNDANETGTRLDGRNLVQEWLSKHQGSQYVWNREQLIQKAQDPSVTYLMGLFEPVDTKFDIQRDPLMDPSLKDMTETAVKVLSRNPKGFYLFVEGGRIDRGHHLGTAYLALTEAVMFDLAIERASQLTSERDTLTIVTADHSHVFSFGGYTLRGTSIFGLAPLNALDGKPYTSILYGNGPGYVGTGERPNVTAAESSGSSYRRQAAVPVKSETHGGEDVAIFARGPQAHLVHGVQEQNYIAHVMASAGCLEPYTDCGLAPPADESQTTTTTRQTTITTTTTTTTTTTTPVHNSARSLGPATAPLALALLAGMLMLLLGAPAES

**Q.** With `CCC(Sc1nc2ccsc2c(=O)n1Cc1ccc(C(=O)O)cc1)C(=O)Nc1ccc(Cl)cc1` (configuration not stated) as the compound, how does the IC50 [1] read?
**A.** > 32 µM (inactive)

**Q.** Which results are given for `COc1ccc(O)c(/C=N/NC(=S)NCCc2ccccc2)c1`?
**A.** IC50 [2]: 60.7 µM (active); EC50 [3]: 13.1 µM (active); EC50 [4]: 16 µM (active); EC50 [5]: 26.3 µM (active)

**Q.** Which results are given for `CCC(C)(C)c1ccc(OCCCC[n+]2cccc(C)c2C)c(C(C)(C)CC)c1`?
**A.** EC50 [6]: > 160 µM (inactive); EC50 (HEK293 [7]): 4.56 µM (active); EC50 (BJ [8]): 3.96 µM (inconclusive); IC50 (HEK293 [9]): 3.2 µM (active); EC50 (BJ [10]): 4.18 µM (inconclusive); EC50 [11]: 670 nM (active); IC50 (HEK293 [12]): 6.37 µM (active); EC50 [13]: 8.15 µM (active); IC50 (HEK293 [14]): 2.48 µM (active); IC50 (HEK293 [15]): > 20 µM (inactive); EC50 (BJ [16]): 5.09 µM (active); EC50 [17]: 5.62 µM (active); IC50 [18]: > 20 µM (inactive); AC50 (CAAX prenyl protease 2): 8.03 µM (active); IC50 [19]: 56.1 µM (inactive); AC50 (CAAX prenyl protease 1): 9.82 µM (active); AC50 [20]: 5.38 µM (active); IC50 [21]: 20.2 µM (active); EC50 (BJ [22]): 2.48 µM (active); AC50 (INS1): 632 nM (active); EC50 (Melanocortin receptor 4): > 3.3 µM (active); AC50 [23]: 31.2 µM (active)
